These results are taken from PMC6063787 (Nature, 2018).

The target of data set [1] is T1, NfMCU (mitochondrial calcium uniporter ortholog) (Aspergillus fischeri, UniProt A1CWT6).
T1 sequence (A1CWT6 76-488): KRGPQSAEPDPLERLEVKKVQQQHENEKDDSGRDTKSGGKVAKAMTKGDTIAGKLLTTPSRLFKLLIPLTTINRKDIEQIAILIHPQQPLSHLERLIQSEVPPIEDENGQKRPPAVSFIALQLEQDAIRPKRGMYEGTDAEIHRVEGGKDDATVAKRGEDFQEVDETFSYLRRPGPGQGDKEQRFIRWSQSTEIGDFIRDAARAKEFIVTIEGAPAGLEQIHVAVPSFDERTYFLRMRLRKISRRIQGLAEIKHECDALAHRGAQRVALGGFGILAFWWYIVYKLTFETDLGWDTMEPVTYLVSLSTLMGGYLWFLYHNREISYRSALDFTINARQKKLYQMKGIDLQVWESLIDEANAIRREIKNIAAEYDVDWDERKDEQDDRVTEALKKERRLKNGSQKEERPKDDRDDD
As to the kind of experiment: […] flux block in proteoliposomes of purified NfMCU. It is filed as cell-based.

The data set “cryo-EM structure” deals with the molecule itself. Put plainly: cryo-EM structure.

For orientation: IC50 means the concentration needed to halve the response being measured. For `[NH2][Ru-3]([NH2])([NH2])([NH3+])([O]C=O)[O][Ru-2]([NH3+])([NH3+])([NH3+])([NH3+])[O]C=O` [Ru360], the IC50 in data set [1] amounted to 500 nM.

B1: saposin (scaffolding protein, 81 residues) (natural protein)
chain: SLPCDICKDVVTAAGDMLKDNATEEEILVYLEKTCDWLPKPNMSASCKEIVDSYLPVILDIIKGEMSRPGEVCSALNLCESLQ
A word on the stoichiometry N: it is the number of molecules, sites or subunits per partner or assembly. Take B1: the “stoichiometry N” value in the data set “cryo-EM structure” is 6.
